# Reference: patent US20060148712A1, “Monocyte chemoattractant activity of galectin-3” (priority 2000, published 2006)
# Where two headings read alike, the source gives them in different places.
# Legend:
# [1] = test system: human peripheral blood monocytes; assay: Monocyte migration assay in vitro (96-well micro Boyden chamber); format: cell-based; conditions: for inhibition at 10000 µM: Homo sapiens, Monocyte, 10 mM lactose, read-out: Inhibition of galectin-3-induced monocyte migration
# Excerpt: Human monocytes were purified from venous blood of normal volunteers essentially as described previously (Nakagawara, et al., J. Clin. Invest. 68:1243-53 (1981)). In brief, after erythrocytes were sedimented by addition of 6% dextran saline solution (I part to 5 parts heparinized blood), the leukocytes were collected, washed twice, and resuspended in Ca^2+ and Mg^2+-free HBSS containing 5% autologous serum. Mononuclear cells were acquired by centrifugation of the leukocyte suspension on Ficoll Paque at 1,500 rpm for 15 min. The cells were resuspended in RPMI 1640 containing 10% autologous serum and allowed to adhere to sterile tissue culture plates for 30 min in a humidified incubator at 5% CO2 and 37° C. After incubation, non-adherent cells were removed by washing the plates three times with PBS at 37° C. […] To detach and harvest the adhered monocytes, 1 mM EDTA-PBS containing 5% serum was added and the plates were incubated on ice for 30 min. The monocytes were washed twice with HBSS and resuspended in RPMI 1640 with 0.1% autologous serum for the migration assay. The viability of monocytes was determined by trypan blue exclusion and was more than 98%. In some experiments, monocytes were purified according to another method using a Percoll discontinuous gradient described previously (Chuluyan & Issekutz, J. Clin. Invest. 92:2768-77 (1993)).
# (§1) Monocyte migration was examined by using 96-well micro Boyden chambers with 5 μm-pore size filters (Neuro Probe, Inc., Gaithersburg, Md.) as described previously (Falk, et al., J. Immunol. Meth. 33:239-47 (1980)), Chertov, et al., J. Biol. Chem. 271:2935-40 (1996)). Briefly, after the indicated concentrations of galectin-3 in RPMI 1640 were applied to the lower chambers, purified monocyte suspensions (2.5-5.0×10^4/well) were applied to the upper chambers. After incubation of the chambers for 1 h in a humidified incubator at 5% CO2 and 37° C., the filters were washed once with PBS and processed with Wright stain. The number of monocytes on the bottom side of the filters was counted in 5 to 10 high-power fields. Monocyte migration was calculated from the average numbers of the counted cells and expressed as % of input cells in a well.
# In assays using inhibitory reagents, the purified monocytes were pretreated with or without the indicated concentrations of B2C10 (Liu, et al., Biochemistry 35:[…] (1996)) or anti-DNP IgG1 (Liu, et al., J. Immunol. 124:2728-31 (1980)) as an isotype-matched control mAb, galectin-3C, or PTX at 37° C. for 30 min. Then the cells were applied to the upper chambers in the presence of these inhibitors at the same concentrations used in the pretreatment. In the assays using lactose and sucrose, the sugars were added to the lower chambers at the initiation of the migration assay.
# human monocytes = assay: Measurement of Ca2+ influx in monocytes (Indo-1 AM); format: cell-based; conditions: for Induction of Ca2+ influx in human monocytes by chemokine: 100 ng/ml
# Experimental: Intracellular concentrations of Ca^2+ were measured by using Indo-1 AM according to a previously described method (Lopez, et al., Cytometry 10:165-73 (1989)). Purified monocytes were resuspended in HBSS containing 1 mM Ca^2+, 1 mM Mg^2+, and 5% autologous serum, and incubated with […] Indo-1 AM for 45 min at 37° C. The cells were washed once, resuspended in the same buffer, and stimuli and inhibitors were added at the time points specified in the Figure Legends. Intracellular Ca^2+ concentration was measured by monitoring light emission at 405 and 485 nm to an excitation wavelength of 355 nm, using an AMINCO-Bowman series 2 luminescence spectrometer (Rochester, N.Y.).
# [2] = test system: cultured human peripheral blood macrophages; assay: Migration of cultured human peripheral blood macrophages in vitro; format: cell-based; conditions: confirmed by applicant (FIG. 9)
# Excerpt: (§2) Human macrophages were obtained by culturing peripheral blood monocytes in vitro for 7 days as previously described (Fantuzzi, et al., Blood 94:875-83 (1999)). Human alveolar macrophages were obtained from bronchoalveolar lavage (BAL) fluid according to a previously described protocol (Sugimoto et al, Am. Rev. Respir. Dis. 139:1329-35 (1989)). The purity of the macrophages was over 90% and the viability was over 99%.
# as §1
# [3] = test system: human alveolar macrophages; assay: Migration of human alveolar macrophages in vitro; format: cell-based
# Excerpt: as §2, §1
# monocytes = format: cell-based, human; conditions: 1 μg/ml of PTX; data not shown
# Experimental: The possibility that G-proteins might be involved in galectin-3-induced monocyte migration was tested using the inhibitor pertussis toxin (PTX), because it is well known that many chemoattractants, including all chemokines, utilize G-protein-coupled receptors to transduce signals into the cell (Baggiolini, Nature 392:565-68 (1998)).
molecule,measurement,setting,value
"OC[C@H]1O[C@@H](O[C@H]2[C@H](O)[C@@H](O)C(O)O[C@@H]2CO)[C@H](O)[C@@H](O)[C@H]1O (some centres unmarked) [lactose, reference compound]",Effect on monocyte migration induced by MCP-1,[1]; 5 mM and 10 mM lactose,did not affect
same,Decrease of galectin-3-induced monocyte migration,"[1]; 5 mM lactose, 10 nM galectin-3, p<0.05, n=3",63.8%
same,Decrease of galectin-3-induced monocyte migration,"[1]; 5 mM lactose, 100 nM galectin-3, p<0.05, n=3",71.5%
same,Decrease of galectin-3-induced monocyte migration,"[1]; 5 mM lactose, 1 μM galectin-3, p<0.05, n=3",57.6%
same,inhibition at 10000 µM,"[1]; 10 nM galectin-3, p<0.05, n=3",78%
same,inhibition at 10000 µM,"[1]; 100 nM galectin-3, p<0.05, n=3",74.1%
same,inhibition at 10000 µM,"[1]; 1 μM galectin-3, p<0.05, n=3",71.1%
same,Inhibition of MCP-1-induced Ca2+ influx,"human monocytes; 5 mM lactose, 100 ng/ml MCP-1",not
same,Inhibition of galectin-3-induced Ca2+ influx,"human monocytes; 5 mM lactose, 1 μM galectin-3",complete inhibition
"OC[C@H]1O[C@@](CO)(O[C@H]2O[C@H](CO)[C@@H](O)[C@H](O)[C@H]2O)[C@@H](O)[C@@H]1O [sucrose, reference compound]",Effect on galectin-3-induced monocyte migration,"[1]; sucrose 5 mM or 10 mM, negative control sugar",no significant effect
same,Inhibition of galectin-3-induced Ca2+ influx,"human monocytes; 5 mM sucrose, 1 μM galectin-3",not
"MCP-1: human recombinant MCP-1, a strong chemoattractant for monocytes (Pepro Tech)",Concentration that induced maximum monocyte migration,"[1]; dose-response experiments, also printed as 11.6 nM",100 ng/mL
same,Induction of Ca2+ influx in human monocytes by chemokine,human monocytes,induced a Ca^2+ influx
same,Response of cultured human macrophages to MCP-1,[2],do not respond
same,Effect on alveolar macrophage migration,"[3]; FIG. 10, exp. 1",no effect
same,Effect on alveolar macrophage migration,"[3]; FIG. 10, exp. 2",negligible effect
SDF-1α,Induction of Ca2+ influx in human monocytes by chemokine,human monocytes,induced a Ca^2+ influx
"pertussis toxin [PTX, reference compound]",Inhibition of MCP-1-induced monocyte migration,"[1]; 1 μg/ml of PTX, all MCP-1 concentrations examined",significantly inhibited
same,Decrease of galectin-3-induced monocyte migration,"[1]; PTX, 1 μM galectin-3, p<0.01, n=5",91.2%
same,Inhibition of galectin-3-induced monocyte migration,"[1]; PTX, 10 or 100 nM galectin-3, p=0.8501 and 0.3093, n=5",did not significantly inhibit
same,Effect of PTX on MCP-1-induced Ca2+ influx,"human monocytes; 1 μg/ml of PTX, 100 ng/ml MCP-1",blocked
same,Effect of PTX on galectin-3-induced Ca2+ influx,"human monocytes; 1 μg/ml of PTX, 1 μM galectin-3",blocked
same,Viability of monocytes,monocytes,did not decrease the viability
